Measurements reported in ChEMBL document CHEMBL5226291, “The race to treat COVID-19: Potential therapeutic agents for the prevention and treatment of SARS-CoV-2” (Eur J Med Chem, 2021).
In brackets after ≈: the same amount, converted by molar mass. Square brackets hold non-standard residues; d marks the D form. Peptide text beside a SMILES is read from it. * marks the point of attachment. ξ: configuration not given here. Decanoyl = CCCCCCCCCC(=O)*; ξF = NC(Cc1ccccc1)C(=O)O; Cbz = O=C(OCc1ccccc1)*; CH2Cl = ClC*

Key:
SARS-CoV [1] = test: Antiviral activity against SARS-CoV infected in HEK293T cells assessed as reduction in viral replication incubated for 7 hrs by luciferase assay; type: functional, organism-based; conditions: Severe acute respiratory syndrome-related coronavirus, HEK-293T
Ebolavirus [2] = test: Antiviral activity against Ebolavirus infected in HEK293T cells assessed as reduction in viral replication incubated for 7 hrs by luciferase assay; type: functional, organism-based; conditions: Orthoebolavirus, HEK-293T
Procathepsin L [3] = biological target: T1, Procathepsin L (Homo sapiens, UniProt P07711); test: Inhibition of human liver Cathepsin L using Z-Phe-Arg-AMC as substrate incubated for 30 mins by fluorometric assay
T1 sequence (P07711 whole entry): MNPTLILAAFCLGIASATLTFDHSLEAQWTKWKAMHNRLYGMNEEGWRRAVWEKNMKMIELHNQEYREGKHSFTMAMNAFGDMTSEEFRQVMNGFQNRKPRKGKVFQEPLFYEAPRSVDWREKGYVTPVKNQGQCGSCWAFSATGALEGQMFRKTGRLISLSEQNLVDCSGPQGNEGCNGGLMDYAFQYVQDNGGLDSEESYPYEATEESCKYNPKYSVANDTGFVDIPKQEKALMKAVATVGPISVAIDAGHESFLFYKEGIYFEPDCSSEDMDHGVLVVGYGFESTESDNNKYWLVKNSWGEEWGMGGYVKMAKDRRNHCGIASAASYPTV

SARS-CoV-2 [4] = type: functional, organism-based; conditions: Severe acute respiratory syndrome coronavirus 2, Vero C1008, 48 h
SARS-CoV-2 [5] = type: functional, organism-based; conditions: Severe acute respiratory syndrome coronavirus 2, Vero C1008, 96 h
SARS-CoV [6] = test: Antiviral activity against SARS-CoV infected in HeLa cells expressing human TMPRSS2 assessed as inhibition of viral replication measured after 20 hrs by fluorescence microscopy; type: functional, organism-based; conditions: Severe acute respiratory syndrome-related coronavirus
SARS-CoV [7] = test: Antiviral activity against SARS-CoV infected in HeLa cells expressing human TMPRSS2 assessed as inhibition of viral replication at 100 uM measured after 20 hrs by fluorescence microscopy; type: functional; conditions: Severe acute respiratory syndrome-related coronavirus
SARS-CoV [8] = test: Antiviral activity against SARS-CoV infected in HeLa cells expressing human TMPRSS2 assessed as inhibition of viral replication at 10 uM measured after 20 hrs in presence of EST by fluorescence microscopy; type: functional; conditions: Severe acute respiratory syndrome-related coronavirus
[9] = Cytotoxicity against African green monkey Vero E6 cells by CCK-8 assay; type: toxicity, cell-based, Vero C1008; conditions: chlorocebus sabaeus
Zika virus = test: Antiviral activity against Zika virus MR766 infected in Vero cells assessed as reduction in viral replication by plaque reduction assay; type: functional, organism-based
Ebolavirus [10] = type: functional, organism-based; conditions: Orthoebolavirus, Vero C1008, 120 h
[11] = test system: Middle East respiratory syndrome-related coronavirus; test: Antiviral activity against wild type MERS-CoV infected in HEK293T/17 cells assessed as inhibition of viral replication by immunoblotting assay; type: functional, organism-based
SARS-CoV [12] = type: functional, organism-based; conditions: Severe acute respiratory syndrome-related coronavirus, Vero C1008, 48 h
[13] = Cytotoxicity against African green monkey Vero E6 cells by MTT assay; type: toxicity, cell-based, Vero C1008; conditions: chlorocebus sabaeus
[14] = Antiviral activity against Human coronavirus NL63 infected in HEK293T cells expressing human ACE2 assessed as inhibition of viral replication incubated for 2 days by Dual-Glo luciferase assay; type: functional, cell-based; conditions: Human coronavirus NL63, HEK-293T, 48 h
[15] = test system: Middle East respiratory syndrome-related coronavirus; test: Antiviral activity against recombinant MERS-CoV pseudovirus infected in Vero cells assessed as inhibition of viral replication incubated for 2 days by Dual-Glo luciferase assay; type: functional, organism-based; conditions: 48 h
[16] = Cytotoxicity against human HEK293T cells; type: toxicity, cell-based, HEK-293T
SARS-CoV [17] = test: Antiviral activity against SARS-CoV infected in HEK293 cells expressing human ACE2 assessed as inhibition of viral replication measured after 40 hrs by luciferase assay; type: functional, organism-based; conditions: Severe acute respiratory syndrome-related coronavirus, HEK293, 40 h
SARS-CoV [18] = type: functional, organism-based; conditions: Severe acute respiratory syndrome-related coronavirus, BJ01, Vero C1008, 64 h
[19] = Selectivity index. ratio of CC50 for cytotoxicity against African green monkey Vero E6 cells to EC50 for antiviral activity against wild type SARS-CoV BJ01 infected in Vero E6 cells; type: toxicity, cell-based, Vero C1008; conditions: read-out: Ratio CC50/EC50
[20] = biological target: Replicase polyprotein 1ab (Severe acute respiratory syndrome coronavirus 2, UniProt P0DTD1); test: Inhibition of SARS-COV2 main protease using Mca-AVLQ-SGFR-K as substrate by Fluorescence microplate reader assay
SARS-CoV-2 [21] = type: functional; conditions: Severe acute respiratory syndrome coronavirus 2, Vero C1008; time 18 hrs; read-out: ED50 (the source's name)
[22] = biological target: Disintegrin and metalloproteinase domain-containing protein 17 (Mus musculus, UniProt Q9Z0F8); test: Inhibition of mouse ADAM17 expressed in HEK293 cells overexpressed with ACE2 assessed as inhibition of ACE2 shedding incubated for 65 mins in presence of PMA by immunoblotting assay; type: cell-based
Sequence of Disintegrin and metalloproteinase domain-containing protein 17 (Q9Z0F8 whole entry, the tested form may be a part): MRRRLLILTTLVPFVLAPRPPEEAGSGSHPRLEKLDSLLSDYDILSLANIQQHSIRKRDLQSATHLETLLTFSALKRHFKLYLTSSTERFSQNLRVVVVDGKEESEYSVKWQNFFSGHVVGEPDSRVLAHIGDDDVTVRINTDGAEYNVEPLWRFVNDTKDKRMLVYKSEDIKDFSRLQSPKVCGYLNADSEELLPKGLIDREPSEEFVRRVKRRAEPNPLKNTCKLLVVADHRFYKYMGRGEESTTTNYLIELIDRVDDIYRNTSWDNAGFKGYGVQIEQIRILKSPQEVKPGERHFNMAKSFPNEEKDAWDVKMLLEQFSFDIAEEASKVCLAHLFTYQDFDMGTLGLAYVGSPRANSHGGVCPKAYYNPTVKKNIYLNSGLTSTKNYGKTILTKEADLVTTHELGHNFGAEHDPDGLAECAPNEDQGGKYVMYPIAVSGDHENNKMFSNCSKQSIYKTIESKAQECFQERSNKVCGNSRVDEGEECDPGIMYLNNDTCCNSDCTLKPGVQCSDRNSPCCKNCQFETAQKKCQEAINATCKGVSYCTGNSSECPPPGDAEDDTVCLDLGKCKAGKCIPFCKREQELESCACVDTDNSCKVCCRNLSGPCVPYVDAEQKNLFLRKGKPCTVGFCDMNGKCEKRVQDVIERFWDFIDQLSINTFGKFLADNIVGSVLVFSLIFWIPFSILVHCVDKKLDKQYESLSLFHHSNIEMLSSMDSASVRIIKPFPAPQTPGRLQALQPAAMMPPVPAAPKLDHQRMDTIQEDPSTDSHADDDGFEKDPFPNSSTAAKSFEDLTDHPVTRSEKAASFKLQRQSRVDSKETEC

[23] = biological target: Replicase polyprotein 1ab (Severe acute respiratory syndrome coronavirus 2) (UniProt P0DTD1); test: Inhibition of recombinant SARS-COV2 main protease using Mca-AVLQ-SGFR-Lys-NH2 as substrate at 1 uM by FRET based cleavage assay
SARS-CoV [24] = type: functional, organism-based; conditions: Severe acute respiratory syndrome-related coronavirus, Vero C1008
[25] = test system: Middle East respiratory syndrome-related coronavirus; test: Antiviral activity against recombinant MERS-CoV pseudovirus infected in Huh-7 cells assessed as inhibition of viral replication measured after 72 hrs by luminometer; type: functional, organism-based; conditions: Huh-7, 72 h
[26] = Cytotoxicity against human Huh-7 cells incubated for 3 days by XTT assay; type: toxicity, cell-based; conditions: time 3 day
[27] = Selectivity index. ratio of CC50 for cytotoxicity against human Huh-7 cells to IC50 for antiviral activity against MERS-CoV pseudovirus infected in Huh-7; type: toxicity, cell-based; conditions: read-out: Ratio CC50/IC50
[28] = Cytotoxicity against human HEK293T cells by XTT assay; type: toxicity, cell-based, HEK-293T
SARS-CoV-2 [29] = type: functional, organism-based; conditions: Severe acute respiratory syndrome coronavirus 2, Vero C1008, 48 h; remark: listed apart in the source
SARS-CoV [30] = type: functional, organism-based; conditions: Severe acute respiratory syndrome-related coronavirus, HEK-293T, 48 h
Procathepsin L [31] = biological target: T1, Procathepsin L; test: Inhibition of recombinant Cathepsin L (unknown origin) using Z-Phe-Arg-AMC as substrate by fluorometric assay

Question: What does the source list for CC(C)(C)OC(=O)N[C@@H](Cc1c[nH]c2ccccc12)C(=O)NNC(=O)OCC(=O)N1CCCc2ccccc21?
Answer: IC50 (SARS-CoV [1]): 273 µM; IC50 (Ebolavirus [2]): 193 µM; IC50 (Procathepsin L [3]): 6.9 µM

Question: For Cc1cccc(C)c1OCC(=O)N[C@@H](Cc1ccccc1)[C@@H](O)C[C@H](Cc1ccccc1)NC(=O)[C@H](C(C)C)N1CCCNC1=O [LOPINAVIR], which EC50 (SARS-CoV-2 [4]) is on record?
Answer: 26.1 µM

Question: Which EC50 (SARS-CoV-2 [5]) does the source give for Cc1cc(C(=O)N[C@@H](C)C(=O)N[C@H](C(=O)N[C@@H](CC(C)C)C(=O)N[C@H](/C=C\C(=O)OCc2ccccc2)C[C@@H]2CCNC2=O)C(C)C)no1 here?
Answer: 16.8 µM

Question: Which results are given for CN(C)C(=O)COC(=O)Cc1ccc(OC(=O)c2ccc(NC(=N)N)cc2)cc1 [CAMOSTAT]?
Answer: IC50 (SARS-CoV [6]): 10 µM; inhibition at 100 µM (SARS-CoV [7]): 65%; inhibition at 10 µM (SARS-CoV [8]): > 95%

Question: Which CC50 [9] does the source give for NC(=O)c1nc(F)cnc1O here?
Answer: > 400 µM

Question: What about the EC50 (Zika virus) of the same compound?
Answer: 3.5 µg/mL (≈ 22.3 µM)

Question: And the EC50 (Ebolavirus [10])?
Answer: 10.5 µg/mL (≈ 66.8 µM)

Question: Which IC50 [11] does the source give for CCCCCCCCCC(=O)N[C@@H](CCCNC(=N)N)C(=O)N[C@H](C(=O)N[C@@H](CCCCN)C(=O)N[C@@H](CCCNC(=N)N)C(=O)CCl)C(C)C (Decanoyl-RVKR-CH2Cl) here?
Answer: 75 µM

Question: Which CC50 [9] does the source give for NC(=O)c1ncn([C@@H]2O[C@H](CO)[C@@H](O)[C@H]2O)n1 [RIBAVIRIN] here?
Answer: > 400 µM

Question: Which results are given for Nc1nc2c(ncn2CCC(CO)CO)c(=O)[nH]1 [PENCICLOVIR]?
Answer: CC50 [9]: > 400 µM; EC50 (SARS-CoV [12]): 96 µM

Question: With O=c1c(O)c(-c2ccc(O)c(O)c2)oc2cc(O)cc(O)c12 [QUERCETIN] as the compound, how does the CC50 [13] read?
Answer: 3320 nM

Question: Which results are given for CN1CCN(C(=O)N[C@@H](Cc2ccccc2)C(=O)N[C@H](/C=C/S(=O)(=O)c2ccccc2)CCc2ccccc2)CC1 [K-777]?
Answer: IC50 [14]: < 7 nM; IC50 [15]: 46 nM; CC50 [16]: > 10 µM

Question: Which EC50 (SARS-CoV [17]) does the source give for CC(C)[C@H](NC(=O)OCc1ccccc1)C(=O)NC(C=O)Cc1ccccc1 (stereo partly drawn) (Cbz-Val-[ξF]-aldehyde) here?
Answer: 100 nM

Question: Which results are given for O=c1cc(-c2ccc(O)c(O)c2)oc2cc(O)cc(O)c12 [LUTEOLIN]?
Answer: EC50 (SARS-CoV [18]): 10.6 µM; CC50 [13]: 155 nM; selectivity ratio [19]: 14.6

Question: Which IC50 [20] does the source give for Cn1sc(=O)n(Cc2ccccc2)c1=O here?
Answer: 2500 nM

Question: Which EC50 (SARS-CoV-2 [21]) does the source give for CCN(CC)CCCC(C)Nc1ccnc2cc(Cl)ccc12 (stereo unspecified) [CHLOROQUINE] here?
Answer: 4.4 µM

Question: And the EC50 (SARS-CoV-2 [4])?
Answer: 1.13 µM

Question: What about the CC50 [9] of the same compound?
Answer: > 100 µM

Question: For CC(C)C[C@H](CC(=O)NO)C(=O)N[C@@H](Cc1ccc2ccccc2c1)C(=O)N[C@@H](C)C(N)=O, which IC50 [22] is on record?
Answer: 100 nM

Question: With O=C[C@H](C[C@@H]1CCNC1=O)NC(=O)[C@H](CC1CCCCC1)NC(=O)c1cc2ccccc2[nH]1 as the compound, how does the CC50 [9] read?
Answer: > 100 µM

Question: What about the inhibition [23] of the same compound?
Answer: 100%

Question: For CC(C)CC(CC(=O)NO)C(=O)N[C@H](C(=O)N[C@@H](C)C(=O)NCCN)C(C)(C)C (stereo partly specified), which IC50 [22] is on record?
Answer: 200 nM

Question: With O=C(OC[C@H]1O[C@@H](OC(=O)c2cc(O)c(O)c(O)c2)[C@H](OC(=O)c2cc(O)c(O)c(O)c2)[C@H](OC(=O)c2cc(O)c(O)c(O)c2)[C@@H]1O)c1cc(O)c(O)c(O)c1 as the compound, how does the EC50 (SARS-CoV [18]) read?
Answer: 4.5 µM

Question: What about the CC50 [13] of the same compound?
Answer: 1080 nM

Question: What about the selectivity ratio [19] of the same compound?
Answer: 240

Question: With COc1ccc(S(=O)(=O)O)cc1/N=N/c1c(S(=O)(=O)O)cc2cc(Nc3nc(Nc4ccccc4)nc(Nc4cc(C)c(/N=N/c5cc(S(=O)(=O)O)cc6cc(S(=O)(=O)O)cc(O)c56)cc4OC)n3)ccc2c1O as the compound, how does the IC50 (SARS-CoV [24]) read?
Answer: 3.89 µM

Question: What about the IC50 [25] of the same compound?
Answer: 600 nM

Question: And the CC50 at 72 h [26]?
Answer: 26.9 µM

Question: What about the selectivity ratio [27] of the same compound?
Answer: 45

Question: With O=C[C@H](C[C@@H]1CCNC1=O)NC(=O)[C@H](Cc1cccc(F)c1)NC(=O)c1cc2ccccc2[nH]1 as the compound, how does the CC50 [9] read?
Answer: > 100 µM

Question: What about the inhibition [23] of the same compound?
Answer: 86%

Question: For CN1CCN(c2ccc(CNC(=O)c3ccno3)cc2)CC1, which CC50 [28] is on record?
Answer: > 100 µM

Question: For CCN(CCO)CCCC(C)Nc1ccnc2cc(Cl)ccc12 (stereo unspecified) [HYDROXYCHLOROQUINE], which EC50 (SARS-CoV-2 [29]) is on record?
Answer: 720 nM

Question: With CCC(CC)COC(=O)[C@H](C)N[P@](=O)(OC[C@H]1O[C@@](C#N)(c2ccc3c(N)ncnn23)[C@H](O)[C@@H]1O)Oc1ccccc1 as the compound, how does the EC50 (SARS-CoV [12]) read?
Answer: 0.069 µM

Question: With C/C(=N\NC(N)=S)c1cccs1 as the compound, how does the EC50 (SARS-CoV [30]) read?
Answer: 6.4 µM

Question: And the CC50 [28]?
Answer: < 100 µM

Question: And the IC50 (Procathepsin L [31])?
Answer: 5.33 µM
